# Source: publication PMC8868346, “Novel Series of Dual NRF2 Inducers and Selective MAO-B Inhibitors for the Treatment of Parkinson’s Disease” (Antioxidants, 2022)
# Like-named read-outs stand apart in the source and are kept apart here.
# Assays:
# [1] = target: T1, hrMAO-A (Homo sapiens, UniProt P21397); assay: Inhibition of monoamine oxidase A (Amplex UltraRed, tyramine); assay type: biochemical
# T1 construct: purchased Sigma–Aldrich
# T1 sequence (P21397 1-527): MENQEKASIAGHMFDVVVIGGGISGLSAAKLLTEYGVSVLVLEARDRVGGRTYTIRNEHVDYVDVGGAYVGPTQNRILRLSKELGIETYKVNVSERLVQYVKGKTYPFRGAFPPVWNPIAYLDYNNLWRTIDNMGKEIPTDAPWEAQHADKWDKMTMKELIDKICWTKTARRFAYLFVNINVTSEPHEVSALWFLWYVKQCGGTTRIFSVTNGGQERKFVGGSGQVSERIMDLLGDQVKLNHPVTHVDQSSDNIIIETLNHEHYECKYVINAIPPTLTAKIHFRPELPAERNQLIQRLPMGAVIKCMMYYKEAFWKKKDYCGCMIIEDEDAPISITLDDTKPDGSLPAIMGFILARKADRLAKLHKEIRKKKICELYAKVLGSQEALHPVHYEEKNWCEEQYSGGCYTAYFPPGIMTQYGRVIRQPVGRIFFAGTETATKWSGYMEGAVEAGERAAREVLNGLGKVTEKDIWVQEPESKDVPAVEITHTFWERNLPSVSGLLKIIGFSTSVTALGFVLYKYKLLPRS
# [2] = test system: nitrite production in mixed primary glial cultures; assay: Nitrite production in LPS stimulated primary mixed glial cultures (Griess); assay type: cell-based; conditions: Rattus norvegicus; 24 h pre-treatment, LPS 1 µg/mL 18 h; read-out: EC50 Nitrite Reduction
# Procedure: Cells were cultured for 7–10 days before treatment.
# Primary glial cells were pre-treated with compounds at the desired concentration for 24 h. Then, treatments were removed and glial cells were incubated with lipopolysaccharide (LPS, 1 μg/mL; Sigma–Aldrich, Spain) in the presence of each compound at the desired concentration for 18 h. Nitrite production was then assessed by modified Griess assay. Briefly, 150 µL of each sample was mixed with 75 µL of 4,4′-diamino-diphenylsulfone (Dapsone) and 75 µL of N-(1-naphthyl)ethylenediamine (Neda). The mixture was incubated at room temperature for 5 min. […] Data were normalized to basal conditions, setting this value as 100% of nitrite production. EC50 values were calculated from dose–response curves obtained from representing percentage of nitrites reduction vs. compound concentration.
# [3] = test system: AREc32; conditions: MTT reduction
# Procedure: AREc32 cells, shared by CR Wolf, were grown in Dulbecco’s modified Eagle medium (DMEM) with GlutaMAX (Gibco, Invitrogen, Madrid, Spain), supplemented with 10% (v/v) filtrated fetal bovine serum (FBS; Gibco, Invitrogen, Madrid, Spain), 1% of antibiotics penicillin-streptomycin, and geneticin (0.8 mg/mL G418; Gibco, Invitrogen, Madrid, Spain). […] They were recovered by centrifugation at 800 rpm for 10 min. Cells were used from the third to twelfth passage.
# (§1) Basal absorbance was set to 100% and results were normalized to basal conditions.
# (§2) Cytotoxicity. LD50 values in several cell cultures employed
# (§3) Table S2. Cytotoxicity elicited by 10-18 compounds in SH-SY5Y, AREc32 and mixed pr imary glial cultures. Viability was measured as MTT reduction in presence of increasing concentrations of der ivatives. LD50 values were calcula ted from dose-response curves. Data are expr essed as mean ± SEM of at least 3 independent experiments.
# (§4) 1.3. PAMPA control compounds (BBB permeability)
# (§5) Table S3. Pr ediction of the BBB passive permeability of control compounds
# [4] = test system: blood-brain barrier (passive diffusion); assay: in vitro; conditions: PAMPA, pH 7.4
# [5] = test system: SH-SY5Y; conditions: MTT reduction
# Procedure: They were recovered by centrifugation at 800 rpm for 10 min. Cells from the third to twelfth passage were seeded at a density of 80,000 cells/well in 96-well plates for the neuroprotection studies.
# as §1, §2, §3, §4, §5
# [6] = test system: blood-brain barrier (passive diffusion); assay: Blood–brain barrier permeation assay (PAMPA); conditions: PAMPA, pH 7.4
# [7] = target: T2, MAO-B (Homo sapiens, UniProt P27338); assay: MAO-B reversibility assay (pre-incubation times); assay type: biochemical; conditions: 0, 15, 30 min pre-incubation at […] IC50
# T2 construct: purchased Sigma–Aldrich
# T2 sequence (P27338 1-520): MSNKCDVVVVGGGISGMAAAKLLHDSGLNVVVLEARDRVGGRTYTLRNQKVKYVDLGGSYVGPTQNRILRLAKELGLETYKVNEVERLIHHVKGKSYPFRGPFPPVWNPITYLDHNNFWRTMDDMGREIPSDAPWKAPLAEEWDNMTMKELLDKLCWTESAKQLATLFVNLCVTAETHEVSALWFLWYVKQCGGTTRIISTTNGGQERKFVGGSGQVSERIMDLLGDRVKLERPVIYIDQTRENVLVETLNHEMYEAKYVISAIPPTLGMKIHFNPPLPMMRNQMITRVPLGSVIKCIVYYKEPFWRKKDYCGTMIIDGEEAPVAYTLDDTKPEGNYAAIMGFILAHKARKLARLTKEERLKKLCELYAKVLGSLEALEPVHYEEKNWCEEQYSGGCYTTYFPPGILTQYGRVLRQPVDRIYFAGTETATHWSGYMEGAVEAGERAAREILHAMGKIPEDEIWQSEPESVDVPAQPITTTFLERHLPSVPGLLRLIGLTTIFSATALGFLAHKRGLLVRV
# [8] = 30 min pre-incubation, 37 °C, read-out: IC50 MAO-A
compound,measurement,setting,value
"C#CCNCCc1c[nH]c2ccc(OC)cc12 [Compound 10, N-(2-(5-Methoxy-1H-indol-3-yl)ethyl)prop-2-yn-1-amine]",IC50,[1],0.826 ± 0.11 µM
same,EC50,[2],16.2 ± 2.5 µM
same,LD50 (µM) AREc32,[3],> 30 µM
same,Papp,[4],12.3 ± 0.62 ×10⁻⁶ cm/s
"C#CCN(CC#C)CCc1c[nH]c2ccc(OC)cc12 [Compound 13, N-(2-(5-Methoxy-1H-indol-3-yl)ethyl)-N-(prop-2-yn-1-yl)prop-2-yn-1-amine]",IC50,[1],> 100 µM
same,EC50,[2],12.6 ± 0.53 µM
same,LD50 (µM) AREc32,[3],> 30 µM
same,Papp,[4],20.3 ± 7.5 ×10⁻⁶ cm/s
"C#CCN(CC#C)CCc1c[nH]c2ccc(OC(=O)/C=C/c3ccc(C)cc3)cc12 [Compound 15, 3-(2-(Di(prop-2-yn-1-yl)amino)ethyl)-1H-indol-5-yl-(E)-3-(p-tolyl) Acrylate]",IC50,[1]; [8],> 100 µM
same,EC50,[2],22.9 ± 3.3 µM
same,LD50 (µM) SH-SY5Y,[5],48.3 ± 6.6 µM
same,LD50 (µM) AREc32,[3],> 30 µM
same,"Papp at 4 h, 100 µM",[6],4.46 ± 1.9 ×10⁻⁶ cm/s
"C#CCN(CC#C)CCc1c[nH]c2ccc(OC(=O)C=Cc3ccccc3)cc12 [Compound 14, 3-(2-(Di(prop-2-yn-1-yl)amino)ethyl)-1H-indol-5-yl Cinnamate]",IC50,[1]; [8],56.6 ± 6.3 µM
same,EC50,[2],19.4 ± 1.4 µM
same,LD50 (µM) SH-SY5Y,[5],66.5 ± 9.8 µM
same,LD50 (µM) AREc32,[3],> 30 µM
same,MAO-B inhibition reversibility,[7],reversible inhibition
same,"Papp at 4 h, 100 µM",[6],4.15 ± 1.8 ×10⁻⁶ cm/s
